Laboratory results from US10052296B2, “Formulations for treating pain” (priority 2016, dated 2018).

Experiments:
[1] = Stability of gabapentin in presence of different stabilizers and solvents; format: physicochemical; details: GBP 9 mg/mL in acetate buffer
Method: GBP containing formulations were prepared by dissolving GBP to a concentration of 9 mg/mL in acetate buffer. A first set of samples were tested for assay and impurities after the initial preparation of formulation. Another set of samples were steam sterilized at 121° C. for 15 min and were tested for assay and impurity levels.

[2] = tested on: human (pooled) whole blood, red blood cells; experiment: In vitro hemolysis test, human blood; details: 15 min at 37° C.; for % Hemolysis: Human Blood; for interpretation of hemolysis to Red Blood Cells: human whole unclotted blood, concentrations tested
Method: (§1) APAP and GBP alone or in combination were evaluated in the in vitro hemolysis test using four biologic matrices (mouse, rat, dog and human whole unclotted blood) to determine the hemolytic potential for each on red blood cells.

[3] = tested on: beagle dog whole blood (male), red blood cells; experiment: In vitro hemolysis test, dog blood; details: 15 min at 37° C.; for % Hemolysis: Dog Blood; for interpretation of hemolysis to Red Blood Cells: dog whole unclotted blood, concentrations tested
Method: as §1

[4] = Pharmacokinetics in rats after 15 min IV infusion; details: for AUC / Cmax: male, rat, plasma, iv
Method: Formulation compositions were prepared by dissolving GBP and/or APAP as indicated in Table 5 and the pH was adjusted to 5.5 using HCl or NaOH.
Blood samples were collected over a 24 h period at which time the rats were exsanguinated and blood collected for Clinical Pathology (Chemistry, Hematology and Coagulation) evaluation. Finally, all animals were necropsied (all exterior and interior cavities and organs were examined) and the site of infusion in the jugular vein, lung, liver and kidney underwent histopathologic evaluation.

motor control = experiment: Mouse RotoRod/Acelerorod test; details: mice, 15 minute IV infusion, 10 mg Acetaminophen/mL, 8 mg Gabapentin/mL; 1, 2, 4, 6 h
Method: Mouse tail flick test was conducted to evaluate test somatic pain and mouse rotorod/acelorod test evaluated behavioral changes, specifically somnolence or dizziness
In each case a positive control was administered as described below.
Male ICR mice were trained on a RotoRod/Acelerod at a continuous accelerating speed from 4 to 30 rpm/min during a time period of 4 minutes for at least 3 times on day 0. Vehicle or test article at a single dose is administered by intravenous infusion over 15 minutes starting 30 minutes before the test period starts and chlorpromazine (30 mg/kg, PO) was administered by oral gavage 60 minutes before the start of the test period. At 1, 2, 4, and 6 hours after the start of the test the mice are placed on the accelerating rotorod (increasing from 4 to 30 rpm/min during a 4 min period) and the time (seconds) the mouse remained on the rotorod was recorded. One-way ANOVA followed by Dunnett's test is applied for comparison between vehicle control and test article groups. P<0.05 is considered significant.
A baseline was measured before administration of the test agents and at 1, 2, 4 and 6 h post the start of the study. The effect of the compounds was evaluated in the standard RotoRod/Acelerorod test.

[5] = tested on: mouse whole blood (male), red blood cells; experiment: In vitro hemolysis test, mouse blood; details: 15 min at 37° C.; for % Hemolysis: Mouse Blood; for interpretation of hemolysis to Red Blood Cells: mouse whole unclotted blood, concentrations tested
Method: as §1

rats = experiment: Toxicologic profile in rats (clinical pathology, necropsy, histopathology)
[6] = tested on: rat whole blood (male), red blood cells; experiment: In vitro hemolysis test, rat blood; details: 15 min at 37° C.; for % Hemolysis: Rat Blood; for interpretation of hemolysis to Red Blood Cells: rat whole unclotted blood, concentrations tested
Method: as §1

[7] = Koshy et al; cited from earlier work

1-(aminomethyl) cyclohexane acetic acid [Gabapentin]
order of stability of GBP in solvents and stabilizers [1]: PVP>Glycine>Lysine>Propylene Glycol>Sorbitol>PEG400>Glycerol>Mannitol>Sodium Oleate>β-cyclodextrin>Deoxychloic Acid>CMC>L-Glutamic Acid
stability of GBP with stabilizer ([1]; PVP at 10 mg/mL): more stable
% Hemolysis ([2]; GBP 2 mg/mL): 0%
% Hemolysis ([2]; GBP 4 mg/mL): 2%
% Hemolysis ([2]; GBP 8 mg/mL): 0%
interpretation of hemolysis to Red Blood Cells [2]: not considered to be hemolytic
% Hemolysis ([3]; GBP 2 mg/mL): 0%
% Hemolysis ([3]; GBP 4 mg/mL): 0%
% Hemolysis ([3]; GBP 8 mg/mL): 0%
interpretation of hemolysis to Red Blood Cells [3]: not considered to be hemolytic
Gabapentin PK AUC ([4]; 15 min IV infusion): 37,663 ng · h/mL
Gabapentin PK Cmax ([4]; 15 min IV infusion): 20,138 ng/mL
PK profile of GBP ([4]; in the presence of APAP): no change
decrease in motor control compared to the vehicle control (motor control): no statistically significant decrease in motor control
% Hemolysis ([5]; GBP 2 mg/mL): 0%
% Hemolysis ([5]; GBP 4 mg/mL): 0%
% Hemolysis ([5]; GBP 8 mg/mL): 0%
interpretation of hemolysis to Red Blood Cells [5]: not considered to be hemolytic
Clinical Pathology (Clinical Chemistry, Hematology or Coagulation Parameters) (rats; 24 h after 15 minute IV infusion): did not alter the Clinical Pathology
histopathology of tissues compared to vehicle control (rats; infusion site, lung, liver, kidney): no changes in the histopathology
% Hemolysis ([6]; GBP 2 mg/mL): 0%
% Hemolysis ([6]; GBP 4 mg/mL): 0%
% Hemolysis ([6]; GBP 8 mg/mL): 0%
interpretation of hemolysis to Red Blood Cells [6]: not considered to be hemolytic

CC(=O)Nc1ccc(O)cc1 [Acetaminophen]
% Hemolysis ([2]; APAP 5 mg/mL): 0%
% Hemolysis ([2]; APAP 10 mg/mL): 0%
interpretation of hemolysis to Red Blood Cells [2]: not considered to be hemolytic
% Hemolysis ([3]; APAP 5 mg/mL): 0%
% Hemolysis ([3]; APAP 10 mg/mL): 5%
interpretation of hemolysis to Red Blood Cells [3]: not considered to be hemolytic
AUC ([4]; Acetaminophen PK AUC, 15 min IV infusion): 7280 ng·h/mL
Cmax ([4]; Acetaminophen PK Cmax, 15 min IV infusion): 10100 ng/mL
AUC ([4]; Bioequivalent Range (80-125%) AUC, 15 min IV infusion, 80-125% of single-drug value): 5830 to 9110 ng·h/mL
Cmax ([4]; Bioequivalent Range (80-125%) Cmax, 15 min IV infusion, 80-125% of single-drug value): 8110 to 12700 ng/mL
decrease in motor control compared to the vehicle control (motor control): no statistically significant decrease in motor control
% Hemolysis ([5]; APAP 5 mg/mL): 4%
% Hemolysis ([5]; APAP 10 mg/mL): 4%
interpretation of hemolysis to Red Blood Cells [5]: not considered to be hemolytic
pH range of minimum hydrolysis of APAP [7]: 5-7
% Hemolysis ([6]; APAP 5 mg/mL): 0%
% Hemolysis ([6]; APAP 10 mg/mL): 0%
interpretation of hemolysis to Red Blood Cells [6]: not considered to be hemolytic
